Source: patent US10988474B2, “Compounds acting at multiple prostaglandin receptors giving a general anti-inflammatory response” (ALLERGAN, INC., priority 2011, dated 2021)

Assays:
[1] = target: T1, human prostanoid EP3 receptor (Homo sapiens, UniProt P43115); experiment: FLIPR Ca2+ signaling PG antagonist assay, EP3 stable cell line; format: cell-based; settings: HEK-293 EBNA cells, human recombinant EP3 with chimeric Gqi; standard agonist PGE2
T1 construct: expressed in transfected cells
T1 sequence (P43115 1-390): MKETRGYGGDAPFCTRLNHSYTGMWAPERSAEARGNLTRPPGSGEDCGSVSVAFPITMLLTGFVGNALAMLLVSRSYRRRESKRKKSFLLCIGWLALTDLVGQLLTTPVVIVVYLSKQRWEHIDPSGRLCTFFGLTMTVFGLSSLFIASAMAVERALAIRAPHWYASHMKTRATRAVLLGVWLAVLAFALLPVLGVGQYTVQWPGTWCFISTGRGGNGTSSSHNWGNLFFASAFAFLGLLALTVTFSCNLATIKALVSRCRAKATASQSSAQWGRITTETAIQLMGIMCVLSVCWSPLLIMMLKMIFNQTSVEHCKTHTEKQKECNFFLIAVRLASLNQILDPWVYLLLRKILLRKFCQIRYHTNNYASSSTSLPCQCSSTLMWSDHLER
Protocol: (§1) The above compounds were tested for PG antagonist activity as follows using human recombinant prostanoid receptor (DP1, EP1-4, FP, IP and TP) stable cell lines: In order to measure the response of Gs and Gi coupled prostanoid receptors as a Ca^2+ signal, chimeric G protein cDNAs were used. Stable cell lines over-expressing human prostanoid DP1, EP1-4, FP, IP, and TP receptors were established as follows:
(§2) Briefly, human prostanoid DP1, EP2, and EP4 receptor cDNAs were co-transfected with chimeric Gqs cDNA containing a haemagglutanin (HA) epitope; human prostanoid EP3 receptors were co-transfected with chimeric Gqi-HA; human EP1, FP, IP, and TP receptor cDNAs were expressed with no exogenous G-proteins. Gqs and Gqi chimeric cDNAs (Molecular Devices, Sunnyvale, Calif., U.S.A.), as well as cDNAs of prostanoid receptors, were cloned into a pCEP4 vector with a hygromycin B selection marker. Transfection into HEK-293 EBNA (Epstein-Barr virus nuclear antigen) cells was achieved by the FuGENE 6 transfection Reagent (Roche Applied Science, Indianapolis, Ind., USA). Stable transfectants were selected according to hygromycin resistance. Because Gqs and Gqi contained an HA epitope, G-protein expression was detected by Western blotting analysis using anti-mouse HA monoclonal antibody and horseradish peroxidase (HRP)-conjugated secondary antibody, while functional expression of prostanoid receptors was detected by FLIPR screening (Matias et al., 2004). These stable cell lines were validated using previously published antagonists at 10 μM against serial dilutions of standard agonists by FLIPR functional assays for Ca^2+ Signaling (as described below).
(§3) Ca^2+ signaling studies were performed using a FLIPR TETRA system (Molecular Devices, Sunnyvale, Calif., USA) in the 384-format. This is a high-throughput instrument for cell-based assays to monitor Ca^2+ signaling associated with GPCRs and ion channels. Cells were seeded at a density of 5×10^4 cells/well in BioCoat poly-D-lysine coated, black wall, clear bottom 384-well plates (BD Biosciences, Franklin lakes, NJ, USA) and allowed to attach overnight in an incubator at 37° C. The cells were then washed twice with HBSS-HEPES buffer (Hanks' balanced salt solution without bicarbonate and phenol red, 20 mM HEPES, pH 7.4) using an ELx405 Select CW Microplate Washer (BioTek, Winooski, Vt., USA). After 60 min of dye-loading in the dark using the Ca^2+-sensitive dye Fluo-4AM (Invitrogen, Carlsbad, Calif., USA), at a final concentration of 2×10^−6M, the plates were washed 4 times with HBSS-HEPES buffer to remove excess dye and leaving 50 μl of buffer in each well. The plates were then placed in the FLIPR TETRA instrument and allowed to equilibrate at 37° C. Compounds were added in a 25 μl volume to each well to give final concentrations of 0.1 μM, 0.3 μM, 1 μM, 3 μM, 10 μM, and 30 μM; or 0.067 μM, 0.1 μM, 0.2 μM, 0.3 μM, 0.67 μM, and 1 μM for cells over-expressing TP receptors. After 4.5 minutes, a 7-point serial dilution of the standard agonist for the corresponding receptor, in a 25 μl volume was injected at the final concentrations from 10^−11M to 10^−5M in 10-fold serial dilution increments for cells expressing human recombinant DP1, EP1, EP2, EP3, EP4, FP, and IP receptors. The dose range for the standard agonist for human recombinant TP receptors was from 10^−12M to 10^−6M. HBSS-HEPES buffer was used as the negative control for the standard agonists. Cells were excited with LED (light emitting diode) excitation at 470-495 nm and emission was measured through an emission filter at 515-575 nm. Assay plates were read for 3.5 minutes using the FLIPR^TETRA. The peak increase in fluorescence intensity was recorded for each well. On each plate, negative controls, dose response of positive controls, and co-treatments of antagonist-agonist for each dose were in triplicates. Standard agonists were as follows: DP=BW 245C, EP1-EP4=PGE2, FP=17-phenyl-PGF2α, IP=Cicaprost, and TP=U-46619. […]

[2] = target: T2, human prostanoid TP receptor (Homo sapiens, UniProt P21731); experiment: FLIPR Ca2+ signaling PG antagonist assay, TP stable cell line; format: cell-based; settings: HEK-293 EBNA cells, human recombinant TP, no exogenous G-protein; standard agonist U-46619
T2 construct: expressed in transfected cells
T2 sequence (P21731 1-343): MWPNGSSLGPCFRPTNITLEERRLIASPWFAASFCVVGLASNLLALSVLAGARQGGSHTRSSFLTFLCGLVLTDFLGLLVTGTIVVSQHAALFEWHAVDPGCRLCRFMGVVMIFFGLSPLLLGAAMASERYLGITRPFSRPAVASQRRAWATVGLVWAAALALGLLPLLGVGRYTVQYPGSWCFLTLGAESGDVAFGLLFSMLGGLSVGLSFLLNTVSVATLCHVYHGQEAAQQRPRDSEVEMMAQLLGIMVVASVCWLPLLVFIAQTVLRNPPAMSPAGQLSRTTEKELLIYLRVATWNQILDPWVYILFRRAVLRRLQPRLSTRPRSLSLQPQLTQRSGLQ
Protocol: as §1, §2, §3

SMILES | Kb [1] [µM] | Kb [2] [µM]
CC(C)COc1ccc(Br)cc1Cn1ccc2nc(C(=O)O)ccc21 [Example 73, 1-(5-Bromo-2-Isobutoxy-Benzyl)-1H-Pyrrolo[3,2-B]Pyridine-5-Carboxylic Acid] | ≥ 10 | 0.008
O=C(O)c1ccc2c(cnn2Cc2cc(Cl)ccc2OCC2CCCC2)c1 [Example 10, 1-(5-Chloro-2-Cyclopentylmethoxy-Benzyl)-1H-Indazole-5-Carboxylic Acid] | 1.1 | 0.02
Cc1ccc(OCC(C)C)c(Cn2ncc3cc(C(=O)O)ccc32)n1 [Example 50, 1-(3-Isobutoxy-6-Methyl-Pyridin-2-ylmethyl)-1H-Indazole-5-Carboxylic Acid] | 7.1 | 5.7
CCC(CC)COc1ccc(Cl)cc1Cn1cc2c(C(=O)O)cccc2n1 [Example 39, 2-[5-Chloro-2-(2-Ethyl-Butoxy)-Benzyl]-2H-Indazole-4-Carboxylic Acid] | 5.5 | 0.11
CC(C)COc1c(F)cc(Cl)cc1Cn1ncc2cc(C(=O)O)ccc21 [Example 47, 1-(5-Chloro-3-Fluoro-2-Isobutoxy-Benzyl)-1H-Indazole-5-Carboxylic Acid] | ≥ 10 | ≥ 10
CCC(CC)COc1ccc(Br)cc1Cn1nc(C)c2cc(C(=O)O)ccc21 [Example 27, 1-[5-Bromo-2-(2-Ethyl-Butoxy)-Benzyl]-3-Methyl-1H-Indazole-5-Carboxylic Acid] | 2.6 | 0.02
Cc1nn(Cc2cc(Cl)ccc2OCC(C)C)c2ccc(C(=O)O)cc12 [Example 24, 1-(5-Chloro-2-Isobutoxy-Benzyl)-3-Methyl-1H-Indazole-5-Carboxylic Acid] | 2.44 | 0.08
O=C(O)c1cccc2nn(Cc3cc(Cl)ccc3OCC3CC3)cc12 [Example 35, 2-(5-Chloro-2-Cyclopropylmethoxy-Benzyl)-2H-Indazole-4-Carboxylic Acid] | ≥ 10 | 1.2
O=C(O)c1ccc2c(cnn2Cc2cc(Cl)ccc2OCc2ccccc2)c1 [Example 8, 1-(2-Benzyloxy-5-Chloro-Benzyl)-1H-Indazole-5-Carboxylic Acid] | ≥ 10 | 2.1
O=C(O)c1ccc2c(cnn2Cc2cc(Cl)ccc2OCC2CC2)c1 [Example 11, 1-(5-Chloro-2-Cyclopropylmethoxy-Benzyl)-1H-Indazole-5-Carboxylic Acid] | 6.5 | 0.12
CC(C)COc1ccc(OC(F)(F)F)cc1Cn1ccc2cc(C(=O)O)ccc21 [Example 71, 1-(2-Isobutoxy-5-Trifluoromethoxy-Benzyl)-1H-Indole-5-Carboxylic Acid] | ≥ 10 | 0.6
Cc1cc2cc(C(=O)O)ccc2n1Cc1cc(Br)ccc1OCC(C)C [Example 66, 1-(5-Bromo-2-Isobutoxy-Benzyl)-2-Methyl-1H-Indole-5-Carboxylic Acid] | ≥ 10 | 0.32
CCC(CC)Oc1ccc(Br)cc1Cn1ncc2cc(C(=O)O)ccc21 [Example 51, 1-[5-Bromo-2-(1-Ethyl-Propoxy)-Benzyl]-1H-Indazole-5-Carboxylic Acid] | 2.6 | 0.05
CC(C)COc1ccc(Cl)cc1Cn1ncc2c(C(=O)O)cccc21 [Example 36, 1-(5-Chloro-2-Isobutoxy-Benzyl)-1H-Indazole-4-Carboxylic Acid] | 4 | 0.003
CCC(CC)COc1ccc(Cl)cc1Cn1ncc2cc(C(=O)O)ncc21 [Example 63, 1-[5-Chloro-2-(2-Ethyl-Butoxy)-Benzyl]-1H-Pyrazolo[3,4-C]Pyridine-5-Carboxylic Acid] | 7.4 | 0.18
CCC(CC)COc1ccc(Br)cc1Cn1nc(C)c2cc(C(=O)O)cnc21 [Example 59, 1-[5-Bromo-2-(2-Ethyl-Butoxy)-Benzyl]-3-Methyl-1H-Pyrazolo[3,4-B]Pyridine-5-Carboxylic Acid] | 5.4 | 0.32
Cc1nn(Cc2cc(Cl)ccc2OCC(C)C)c2ncc(C(=O)O)cc12 [Example 61, 1-(5-Chloro-2-Isobutoxy-Benzyl)-3-Methyl-1H-Pyrazolo[3,4-B]Pyridine-5-Carboxylic Acid] | ≥ 10 | 0.3
CCC(CC)COc1ccc(Br)cc1Cn1c(C)cc2cc(C(=O)O)ccc21 [Example 68, 1-[5-Bromo-2-(2-Ethyl-Butoxy)-Benzyl]-2-Methyl-1H-Indole-5-Carboxylic Acid] | ≥ 10 | ≥ 10
CCC(CC)COc1ccc(Cl)cc1Cn1ncc2cc(C(N)=O)ncc21 [Example 62, 1-[5-Chloro-2-(2-Ethyl-Butoxy)-Benzyl]-1H-Pyrazolo[3,4-C]Pyridine-5-Carboxylic Acid Amide] | ≥ 10 | ≥ 10
O=C(O)c1ccc2c(cnn2Cc2cc(Br)ccc2OCc2ccccc2)c1 [Example 12, 1-(2-Benzyloxy-5-Bromo-Benzyl)-1H-Indazole-5-Carboxylic Acid] | ≥ 10 | 0.044
CC(C)COc1ccc(C(F)(F)F)cc1Cn1ncc2cc(C(=O)O)ccc21 [Example 18] | 4 | 0.004
CC(C)COc1ccc(OCC(F)F)cc1Cn1ncc2cc(C(=O)O)ccc21 [Example 55, 1-[5-(2,2-Difluoro-Ethoxy)-2-Isobutoxy-Benzyl]-1H-Indazole-5-Carboxylic Acid] | ≥ 10 | 0.3
CCC(CC)COc1ccc(Br)cc1Cn1cnc2cc(C(=O)O)ccc21 [Example 78, 1-[5-Bromo-2-(2-Ethyl-Butoxy)-Benzyl]-1H-Benzoimidazole-5-Carboxylic Acid] | ≥ 10 | 0.016
CC(C)COc1ccc(Br)cc1Cn1ncc2c(C(=O)O)cccc21 [Example 7, 1-(5-Bromo-2-Isobutoxy-Benzyl)-1H-Indazole-4-Carboxylic Acid] | ≥ 10 | 0.02
O=C(O)c1ccc2cnn(Cc3cc(Br)ccc3OCC3CCCC3)c2c1 [Example 44, 1-(5-Bromo-2-Cyclopentylmethoxy-Benzyl)-1H-Indazole-6-Carboxylic Acid] | 1.6 | 0.001
